The assay has as its target T1, mouse SGLT5 (Mus musculus, UniProt Q5SWY8).
T1 construct: expressed in transfected cells; host or cells: HEK293T
T1 sequence (Q5SWY8 1-596): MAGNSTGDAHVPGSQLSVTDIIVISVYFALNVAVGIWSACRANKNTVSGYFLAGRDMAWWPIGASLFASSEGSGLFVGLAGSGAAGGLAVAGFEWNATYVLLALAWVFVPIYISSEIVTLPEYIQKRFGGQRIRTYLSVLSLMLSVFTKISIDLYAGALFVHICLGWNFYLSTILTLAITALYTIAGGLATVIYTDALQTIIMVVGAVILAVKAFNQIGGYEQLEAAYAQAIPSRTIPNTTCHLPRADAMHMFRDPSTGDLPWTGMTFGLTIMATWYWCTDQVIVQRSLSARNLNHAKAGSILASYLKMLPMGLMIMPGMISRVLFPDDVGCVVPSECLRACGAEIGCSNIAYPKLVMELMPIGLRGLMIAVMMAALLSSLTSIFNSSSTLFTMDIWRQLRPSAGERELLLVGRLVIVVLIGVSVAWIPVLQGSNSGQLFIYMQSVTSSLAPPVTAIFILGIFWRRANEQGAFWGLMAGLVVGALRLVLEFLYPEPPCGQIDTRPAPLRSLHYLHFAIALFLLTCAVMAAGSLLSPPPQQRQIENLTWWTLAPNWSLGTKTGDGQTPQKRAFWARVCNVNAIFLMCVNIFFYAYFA
Kind of assay: Radioactive uptake assay (saturation kinetics) in HEK293T cells expressing mouse SGLT5. It counts as cell-based. As to the method:
For a typical transporter experiment we proceeded as follows. […] To minimize cell loss during the various washing steps in the radioactive uptake experiments, the wells where the cells were seeded were previously coated with poly- D-lysine, which improved their adhesion to the plastic surface of the wells. For this, each well of the 24-well plates was treated with 200 µl of a 0.01% poly-L-lysine solution for 10 min, washed 3 times with 1 ml of sterilized water and left to dry for 2 h. Only then could the 24-well plates be seeded with the appropriate cell lines and cultured overnight at 37 °C in 5% CO2.
On day two, the radioactive uptake assay could be performed. […]
Once the uptake medium was added to the cells, the plates were incubated at 37 °C in 5% CO2 during the required time. […] In each experiment, the transport activities were calculated after subtracting a “blank” value, corresponding to the radioactivity in the appropriate control cells (HEK293T cells that were stably or transiently transfected with one of the parent plasmids pEF6/MycHisA, pEF6HisB, pUB82 or pUB83 with no inserted cDNA) that were analyzed in parallel. […]
Supplementary Fig. 4: Transport activities for 1,5-anhydroglucitol and mannose of recombinant mouse SGLT4 and SGLT5 isoforms measured in HEK293T cells. […]

We go through one molecule from PMC10439028, “SGLT5 is the renal transporter for 1,5-anhydroglucitol, a major player in two rare forms of neutropenia” (Cellular and Molecular Life Sciences: CMLS, 2023).

Regarding `OC[C@H]1OC[C@H](O)[C@@H](O)[C@@H]1O` [1,5-AG, 1,5-anhydroglucitol], the “mSGLT5 Vmax” value (30 min, Supplementary Fig. 4) is 16 pmol/min/100 000 cells. Moreover, the “higher affinity of mouse SGLT5 than mouse SGLT4 for 1,5-AG” value (mouse SGLT5 versus mouse SGLT4) was “over tenfold”.
